Assay [1] has as its target Replicase polyprotein 1ab (Severe acute respiratory syndrome coronavirus 2, UniProt P0DTD1). The experiment in a line: Inhibition of SARS-CoV-2 MPro.
The test system of assay [2] is Middle East respiratory syndrome-related coronavirus. The experiment in a line: Antiviral activity against MERS-CoV infected in human Huh-7 cells assessed as reduction of viral growth. The format is functional, organism-based.
Assay [3] concerns the target Procathepsin L (Homo sapiens, UniProt P07711). Description: Inhibition of recombinant cathepsin L (unknown origin).
Assay [4] concerns the target Replicase polyprotein 1ab (Severe acute respiratory syndrome-related coronavirus, UniProt P0C6X7). The experiment in a line: Binding affinity to SARS-CoV-1 MPro assessed as inhibition constant.
Assay [5] can be described thus: Inhibition of HCoV-229E MPro. On the set-up: species or system Human coronavirus 229E.
Assay [6] concerns Human coronavirus 229E. The experiment in a line: microbe, parasite or virus in culture. Particulars: MRC5.
The test system of assay [7] is SARS-CoV. Type of assay: functional, organism-based, Vero E6. Particulars: Severe acute respiratory syndrome-related coronavirus, Vero C1008.
Assay [8] addresses Transmembrane protease serine 2 (Homo sapiens) (UniProt O15393). Description: Binding affinity to TMPRSS2 (unknown origin) assessed as inhibition constant by fluorescence-based assay.
The test system of assay [9] is SARS-CoV-2. Type of assay: functional, organism-based. Particulars: Severe acute respiratory syndrome coronavirus 2.
Assay [10] deals with Human coronavirus OC43. The experiment in a line: Antiviral activity against HCoV-OC43 infected in human Huh-7 cells assessed as reduction of viral growth. Particulars: Betacoronavirus 1, Huh-7. Type of assay: functional, organism-based.
The test system of assay [11] is SARS-CoV-2. Type of assay: functional, organism-based. Particulars: Severe acute respiratory syndrome coronavirus 2, HPAEpiC.
The test system of assay [12] is SARS-CoV-2. The format is functional, organism-based. Particulars: Severe acute respiratory syndrome coronavirus 2, Huh-7.

SMILES strings stand for the structures. Square brackets hold non-standard residues; d marks the D form. Peptide text beside a SMILES is read from it. βAla = NCCC(=O)O

As a reminder, the IC50 is the concentration that inhibits the measured activity by half. In general, EC50 refers to the midpoint of the concentration-response curve. By Ki is commonly meant a measure of affinity in units of concentration, obtained from inhibition or displacement.

Chain of Procathepsin L (P07711 whole entry): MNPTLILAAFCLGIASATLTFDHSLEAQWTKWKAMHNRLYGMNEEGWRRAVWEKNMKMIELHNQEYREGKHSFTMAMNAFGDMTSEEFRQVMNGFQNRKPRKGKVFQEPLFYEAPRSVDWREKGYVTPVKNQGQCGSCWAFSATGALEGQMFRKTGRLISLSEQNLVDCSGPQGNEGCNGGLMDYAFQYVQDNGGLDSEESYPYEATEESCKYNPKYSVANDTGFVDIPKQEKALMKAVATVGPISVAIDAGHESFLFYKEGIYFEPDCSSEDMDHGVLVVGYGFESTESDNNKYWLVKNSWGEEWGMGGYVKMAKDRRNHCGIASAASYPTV
Chain of Transmembrane protease serine 2 (Homo sapiens) (O15393 1-255 limits assumed): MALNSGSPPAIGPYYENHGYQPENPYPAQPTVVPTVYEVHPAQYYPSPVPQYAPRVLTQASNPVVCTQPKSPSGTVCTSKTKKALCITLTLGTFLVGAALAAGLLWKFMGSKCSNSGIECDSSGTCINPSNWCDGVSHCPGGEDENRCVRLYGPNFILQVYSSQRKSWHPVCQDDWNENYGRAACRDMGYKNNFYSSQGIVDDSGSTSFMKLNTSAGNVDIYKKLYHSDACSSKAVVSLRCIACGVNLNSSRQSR
Chain of Transmembrane protease serine 2 (Homo sapiens) (O15393 256-492 limits assumed): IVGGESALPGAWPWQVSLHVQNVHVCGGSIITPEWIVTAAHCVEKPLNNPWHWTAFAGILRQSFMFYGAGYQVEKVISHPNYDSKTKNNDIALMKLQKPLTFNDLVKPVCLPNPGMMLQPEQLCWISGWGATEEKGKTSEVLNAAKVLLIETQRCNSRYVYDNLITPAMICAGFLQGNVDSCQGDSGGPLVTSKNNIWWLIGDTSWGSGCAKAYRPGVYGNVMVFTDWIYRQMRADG

As to `O=C[C@H](C[C@@H]1CCNC1=O)NC(=O)[C@H](Cc1ccccc1)NC(=O)c1cc2ccccc2[nH]1`, in assay [1], the IC50 came out at 34 nM.
Regarding `CC[C@H](C)[C@H](N)C(=O)N[C@@H](CCC(=O)O)C(=O)N[C@@H](CCC(=O)O)C(=O)N[C@H](C(=O)N[C@@H](CO)C(=O)N[C@@H](CCCCN)C(=O)N[C@@H](CCCCN)C(=O)N[C@H](C(=O)N[C@@H](CCC(=O)O)C(=O)N[C@@H](CCC(=O)O)C(=O)N[C@H](C(=O)N[C@@H](CO)C(=O)N[C@@H](CCCCN)C(=O)N[C@@H](CCCCN)C(=O)N[C@H](C(=O)N[C@@H](CCC(=O)O)C(=O)N[C@@H](CCC(=O)O)C(=O)N[C@H](C(=O)N[C@@H](CO)C(=O)N[C@@H](CCCCN)C(=O)N[C@@H](CCCCN)C(=O)N[C@H](C(=O)N[C@@H](CCC(=O)O)C(=O)N[C@@H](CCC(=O)O)C(=O)N[C@H](C(=O)N[C@@H](CO)C(=O)N[C@@H](CCCCN)C(=O)N[C@@H](CCCCN)C(=O)N[C@H](C(=O)N[C@@H](CCC(=O)O)C(=O)N[C@@H](CCC(=O)O)C(=O)N[C@H](C(=O)N[C@@H](CO)C(=O)N[C@@H](CCCCN)C(=O)N[C@@H](CCCCN)C(=O)NCCC(=O)N[C@@H](CCCCN)C(=O)O)[C@@H](C)CC)[C@@H](C)CC)[C@@H](C)CC)[C@@H](C)CC)[C@@H](C)CC)[C@@H](C)CC)[C@@H](C)CC)[C@@H](C)CC)[C@@H](C)CC` (H-IEEISKKIEEISKKIEEISKKIEEISKKIEEISKK[βAla]K-OH), the EC50 in [2] came out at 100 nM.
As to `CCOC(=O)[C@H]1OC1C(=O)N[C@@H](CC(C)C)C(=O)NCCC(C)C` (some centres not stated), the half-inhibitory concentration (IC50) in assay [3] was 180 nM.
Take `COc1cccc2[nH]c(C(=O)N[C@@H](CC(C)C)C(=O)N[C@@H](C[C@@H]3CCNC3=O)C(=O)CO)cc12` [PF-00835231]: the Ki in assay [4] stood at 4.94 nM. In assay [5], this compound yielded an IC50 of 4 nM.
As for `C[C@@H](OC(C)(C)C)[C@H](NC(=O)OCc1ccccc1)C(=O)N[C@@H](CC1CCCCC1)C(=O)N[C@H](C=O)C[C@@H]1CCNC1=O`, the results for the IC50 in assay [6] and in assay [7] were 140 nM and 600 nM, respectively.
As to `N=C(N)c1cccc(C[C@H](NS(=O)(=O)c2cccc(-c3ccc(Cl)cc3Cl)c2)C(=O)N2CCC(CCN)CC2)c1`, the K in assay [8] is 0.9 nM.
In assay [9], `NC1(C(=O)N[C@@H](CCO)c2ccc(Cl)cc2)CCN(c2nc[nH]c3nccc2-3)CC1` [CAPIVASERTIB] returned an IC50 of 2330 nM.
`COc1cccc2[nH]c(C(=O)N[C@@H](CC(C)C)C(=O)N[C@@H](C[C@@H]3CCCNC3=O)C(=O)COC(=O)c3c(C)cc(C)nc3C)cc12`: the EC50 in assay [10] was 90 nM.
For `CC1(C)[C@@H]2[C@@H](C(=O)N[C@H](C=O)C[C@@H]3CCNC3=O)N(C(=O)COc3ccc(OC(F)(F)F)cc3)C[C@@H]21`, the figures for the EC50 in assay [11] and in [12] were 1.2 nM and 35.3 nM, respectively.

(Values after ChEMBL document CHEMBL5316353, “Antitarget, Anti-SARS-CoV-2 Leads, Drugs, and the Drug Discovery-Genetics Alliance Perspective” (J Med Chem, 2023).)
